Experimental data taken from publication PMC7278688, “Anti-Hypertensive Activity of Novel Peptides Identified from Olive Flounder (Paralichthys olivaceus) Surimi” (Foods, 2020).
Entries after “also recorded” stand apart in the source; their conditions may differ. Where two headings read alike, the source gives them in different places. Where a SMILES comes first, the peptide text is derived from it. Where no end group is shown, it is not given here.

How the values were obtained:
[1] = target: T1, Angiotensin I-converting enzyme (ACE) (Homo sapiens, UniProt P12821); parameters: purchased Dojindo (Kumamoto, Japan); settings: cited from earlier work
Text: Table 1 IC50 values of ACE inhibitory peptides derived from Paralichthys olivaceus surimi. | column: IC50 Value (µM) || Several studies have investigated the relationship between protein intake and blood pressure. […] Our previous study confirmed that surimi manufactured from olive flounder could be used as a beneficial ingredient in dietary protein due to its antihypertensive effect. The study also identified novel peptides derived from surimi. ACE inhibition plays a major physiological role in regulating blood pressure. The current study investigated the ACE inhibition activity of the novel peptides ...
Target sequence in this assay (P12821 30-1306, species assumed): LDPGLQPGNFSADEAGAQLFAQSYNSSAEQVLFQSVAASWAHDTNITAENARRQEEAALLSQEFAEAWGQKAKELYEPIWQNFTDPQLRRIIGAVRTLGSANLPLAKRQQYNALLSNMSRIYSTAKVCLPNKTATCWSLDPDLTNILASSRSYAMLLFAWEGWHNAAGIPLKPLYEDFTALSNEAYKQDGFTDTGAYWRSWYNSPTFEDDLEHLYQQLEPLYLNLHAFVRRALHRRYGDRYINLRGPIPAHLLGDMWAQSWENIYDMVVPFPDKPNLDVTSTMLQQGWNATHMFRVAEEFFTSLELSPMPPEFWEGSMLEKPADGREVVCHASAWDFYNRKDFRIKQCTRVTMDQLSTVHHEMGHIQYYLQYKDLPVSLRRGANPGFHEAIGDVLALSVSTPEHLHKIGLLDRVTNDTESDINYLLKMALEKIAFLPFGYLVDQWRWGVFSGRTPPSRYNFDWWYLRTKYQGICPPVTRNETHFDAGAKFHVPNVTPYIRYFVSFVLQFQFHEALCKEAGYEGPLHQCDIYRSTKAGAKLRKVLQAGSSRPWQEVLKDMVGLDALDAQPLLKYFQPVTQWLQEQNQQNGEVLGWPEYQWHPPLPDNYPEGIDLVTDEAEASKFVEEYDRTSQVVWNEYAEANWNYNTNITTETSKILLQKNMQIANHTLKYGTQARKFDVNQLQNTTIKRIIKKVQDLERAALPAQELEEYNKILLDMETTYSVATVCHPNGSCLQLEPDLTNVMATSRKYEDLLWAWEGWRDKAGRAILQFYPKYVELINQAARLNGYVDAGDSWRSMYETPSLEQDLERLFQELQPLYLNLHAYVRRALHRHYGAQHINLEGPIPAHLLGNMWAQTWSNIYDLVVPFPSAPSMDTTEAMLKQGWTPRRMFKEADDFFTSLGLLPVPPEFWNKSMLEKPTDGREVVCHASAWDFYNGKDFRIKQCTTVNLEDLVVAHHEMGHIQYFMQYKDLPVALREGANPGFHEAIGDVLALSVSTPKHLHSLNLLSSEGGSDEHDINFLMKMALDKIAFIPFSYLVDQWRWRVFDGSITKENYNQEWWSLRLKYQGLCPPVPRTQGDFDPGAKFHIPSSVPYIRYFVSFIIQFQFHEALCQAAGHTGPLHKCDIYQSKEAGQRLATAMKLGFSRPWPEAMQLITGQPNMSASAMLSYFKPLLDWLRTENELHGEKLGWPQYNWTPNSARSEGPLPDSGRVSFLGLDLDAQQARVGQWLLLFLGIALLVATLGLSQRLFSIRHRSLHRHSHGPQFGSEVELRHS

[2] = target: T1, Angiotensin I-converting enzyme (ACE); experiment: ACE inhibitory activity assay (Dojindo ACE kit-WST); format: biochemical; parameters: purchased Dojindo (Kumamoto, Japan); settings: for IC50: mean ± SD of triplicate experiments, read-out: IC50 value of ACE inhibition
Method: The inhibitory activity of ACE was measured using the Dojindo ACE kit-WST (Kumamoto, Japan) in accordance with the manufacturer’s protocols. The principles of the kit have been described in a previous study.
The inhibitory ratios were calculated as follows:Inhibition rate (%) = [(Control − Sample)/(Control − Blank)] × 100(1) where IC50 is the concentration of inhibitor required for 50% inhibition of an enzymatic activity.
Target sequence in this assay (P12821 30-1306, species assumed): as above

[3] = tested on: spontaneously hypertensive rats (SHRs); experiment: Systolic blood pressure after oral administration in SHRs (tail-cuff); format: in vivo; settings: for systolic blood pressure (SBP): 3 h after oral administration, 50 mg/kg in 1 mL saline, 6 SHRs per group, saline group 200–210 mmHg, mean ± SD; for change in blood pressure, overall result (in words): oral administration, 50 mg/kg, SHRs, time not stated
Method: SHRs with tail SBP over 180 mmHg were obtained from SLC Inc. (Shizuoka, Japan). Seven-week-old male, specific pathogen-free SHRs of approximately 300 g body weight were raised under room temperature (25 °C) with a 12-h light/dark cycle. The rats were fed a normal diet and tap water, with ad libitum feeding. All animals were administrated the dissolved samples in saline solution. The rats were divided into five groups comprised of a control group (saline); a group treated with peptide from sardine (positive control); and groups treated with any of three peptides (IVDR, WYK, and VASVI). Each was orally administered to 6 SHRs at a dose of 50 mg/kg which was dissolved in 1 mL saline. SBP was measured by a tail-cuff method before administration and at 3, 6, and 9 h post-administration using a CODA™ blood pressure monitor (Kent Scientific Corp., Torrington, CT, USA). The animal experiment received approval from the Animal Care and Use Committee of the Jeju National University (Approval NO. 2017-0017) and all experiments were performed in accordance with the guidelines.

[4] = tested on: Akt (protein kinase B) in HUVECs; experiment: Phosphorylation of Akt in HUVECs, Western blot; format: cell-based, human; settings: for phosphorylation level of Akt (in words): 25, 50, and 100 μg/mL, HUVECs pretreated 24 h, triplicate
Method: (§1) HUVECs were seeded on 6-well plates at a concentration of 1 × 10* cells/mL. Sixteen hours after seeding, the cells were pretreated with the peptides for 24 h. The experimental procedure was completed as previously described. The primary antibodies (p-Akt, p-eNOS, and β-actin) were used at 1:1000 dilutions and incubated with the membrane at 4 °C overnight. The secondary antibodies were used at 1:3000 dilutions. All antibodies were purchased from Cell Signaling Technology (Beverly, MA, USA).

[5] = tested on: human umbilical vein endothelial cells (HUVECs); experiment: NO production in HUVECs (Griess reagent); format: cell-based; settings: 3 h, 540 nm, compared with control
Method: Cultures of human umbilical vein endothelial cells (HUVEC, ATCC* CRL-1730) were incubated at 37 °C in a cell incubator supplied with 5% CO2. Cell media compositions were based on those used in a previous study. Furthermore, production of NO was analyzed using Griess reagent (1% sulphanilamide and 0.1% naphthylethylenediamine dihydrochloride in 2.5% phosphoric acid), according to the method described by Ko et al.. HUVEC were seeded in 96-well plates at 1 × 10* cells/mL; after pre-incubation (24 h) the cells were treated without or with three concentrations of peptides (25, 50, and 100 μg/mL) for 3 h. Then the cells were treated with Griess reagent and incubated at 37 °C for 10 min in the dark. The […] was quantified using a microplate reader at 540 nm.

[6] = target: T1, Angiotensin I-converting enzyme (ACE)
Target sequence in this assay (P12821 30-1256): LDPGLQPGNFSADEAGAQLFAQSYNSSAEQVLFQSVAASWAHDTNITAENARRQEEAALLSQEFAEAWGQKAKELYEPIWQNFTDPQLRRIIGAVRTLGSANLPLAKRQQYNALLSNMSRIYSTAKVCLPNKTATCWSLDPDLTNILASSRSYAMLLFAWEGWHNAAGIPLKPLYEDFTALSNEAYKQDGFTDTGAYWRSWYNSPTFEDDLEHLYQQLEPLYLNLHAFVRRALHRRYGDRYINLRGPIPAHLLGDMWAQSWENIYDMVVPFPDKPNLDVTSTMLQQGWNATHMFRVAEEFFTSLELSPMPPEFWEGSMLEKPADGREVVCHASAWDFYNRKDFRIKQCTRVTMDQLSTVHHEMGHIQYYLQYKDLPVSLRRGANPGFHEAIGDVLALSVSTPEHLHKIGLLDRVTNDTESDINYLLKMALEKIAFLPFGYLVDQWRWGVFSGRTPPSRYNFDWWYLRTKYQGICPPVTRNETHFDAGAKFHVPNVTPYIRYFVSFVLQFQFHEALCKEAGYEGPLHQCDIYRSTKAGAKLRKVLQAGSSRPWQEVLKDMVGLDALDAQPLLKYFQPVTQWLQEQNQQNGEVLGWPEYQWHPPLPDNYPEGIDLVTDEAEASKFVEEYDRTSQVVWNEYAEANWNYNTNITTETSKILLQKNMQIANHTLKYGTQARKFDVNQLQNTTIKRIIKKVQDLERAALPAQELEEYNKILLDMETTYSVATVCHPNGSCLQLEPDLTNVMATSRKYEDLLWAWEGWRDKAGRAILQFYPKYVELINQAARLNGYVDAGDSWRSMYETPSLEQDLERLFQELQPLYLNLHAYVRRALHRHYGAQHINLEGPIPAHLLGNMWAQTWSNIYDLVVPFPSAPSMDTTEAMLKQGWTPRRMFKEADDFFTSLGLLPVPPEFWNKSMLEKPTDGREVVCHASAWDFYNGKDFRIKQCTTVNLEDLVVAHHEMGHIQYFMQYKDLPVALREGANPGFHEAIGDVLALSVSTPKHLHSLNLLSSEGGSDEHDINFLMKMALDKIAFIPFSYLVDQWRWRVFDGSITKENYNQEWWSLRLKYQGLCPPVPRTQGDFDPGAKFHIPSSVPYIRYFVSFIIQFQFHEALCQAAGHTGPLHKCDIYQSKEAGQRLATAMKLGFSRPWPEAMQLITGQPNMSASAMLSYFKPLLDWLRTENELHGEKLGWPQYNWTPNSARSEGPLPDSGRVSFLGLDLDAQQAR

[7] = tested on: endothelial nitric oxide synthase (eNOS) in HUVECs; experiment: Phosphorylation of eNOS in HUVECs, Western blot; format: cell-based, human; settings: positive control or overall result, concentration not given
Method: as §1

[8] = literature peptides for comparison, read-out: IC50 of ACE inhibitory peptides isolated from food proteins
[9] = peptides at 25–100 μg/mL, means ± SD of triplicate

ANSEVAQWR [from Trichiurus lepturus myosin]
IC50 [1, 8]: 89.6 µM

NCCCC[C@H](NC(=O)[C@H](Cc1ccc(O)cc1)NC(=O)[C@@H](N)Cc1c[nH]c2ccccc12)C(=O)O [WYK, Tryptophan-Tyrosine-Lysine] (H-Trp-Tyr-Lys-OH)
ACE inhibitory activity (in words) [2]: high Angiotensin I-converting Enzyme (ACE) inhibition activity; also recorded: high ACE inhibitory activity | IC50 [2]: 33 ± 0.68 µM | systolic blood pressure (SBP) [3]: 173 ± 4 mmHg | change in blood pressure, overall result (in words) [3]: effective at decreasing SBP in SHRs | phosphorylation level of Akt (in words) [4]: significantly increased | NO production in HUVECs (in words) [5, 9]: significantly higher

Arg-Val-Cys-Leu-Pro (RVCLP) [from lizard fish]
IC50 [1, 8]: 175 µM

EALVSQLTR [from Trichiurus lepturus myosin]
IC50 [1, 8]: 91.5 µM

Val-Tyr [Sardine peptide (Val-Tyr), reference compound]
systolic blood pressure (SBP) [3]: 184 ± 2 mmHg | change in blood pressure, overall result (in words) [3]: declined considerably | IC50 ([1]; determined by Matsufuji et al., read-out: IC50 value of ACE inhibition (sardine peptide)): 26 µM

CC[C@H](C)[C@H](N)C(=O)N[C@H](C(=O)N[C@@H](CC(=O)O)C(=O)N[C@@H](CCCNC(=N)N)C(=O)O)C(C)C [IVDR, Isoleucine-Valine-Aspartic acid-Arginine] (H-IVDR-OH)
ACE inhibitory activity (in words) [2]: high Angiotensin I-converting Enzyme (ACE) inhibition activity; also recorded: high ACE inhibitory activity | IC50 [2]: 46.9 ± 0.32 µM | change in blood pressure, overall result (in words) [3]: effective at decreasing SBP in SHRs | phosphorylation level of Akt (in words) [4]: significantly increased | NO production in HUVECs (in words) ([5]; 100 μg/mL): increased the production of NO only slightly

Ala-Ser-Leu [from silkworm pupa]
IC50 [1, 8]: 102 µM

Phe-Gly-Als-Ser-Thr-Arg-Gly-Ala (FGASTRGA; printed 'Als' at position 3 read as a typo for Ala) [from Alaska pollock frame]
IC50 [1, 8]: 14.7 µM

VASVI [VASVI, Valine-Alanine-Serine-Valine-Isoleucine]
ACE inhibitory activity (in words) [2]: high Angiotensin I-converting Enzyme (ACE) inhibition activity; also recorded: high ACE inhibitory activity | IC50 [2]: 32.7 ± 1.32 µM | systolic blood pressure (SBP) [3]: 181 ± 2 mmHg | change in blood pressure, overall result (in words) [3]: effective at decreasing SBP in SHRs | phosphorylation level of Akt (in words) [4]: significantly increased | NO production in HUVECs (in words) [5, 9]: significantly higher

Trp-Tyr-Lys (WYK) (peptide)
IC50 of inhibition of ACE enzymatic activity (Dojindo ACE kit-WST) [6]: 33 µM

ALGPQFY [from stone fish]
IC50 [1, 8]: 12 µM

[Ca+2] [calcium, reference compound]
phosphorylation of eNOS (in words) [7]: profoundly increased | phosphorylation of Akt (in words) ([4]; HUVECs, positive control or overall result, concentration not given): profoundly increased

IVDR [Ile-Val-Asp-Arg (IVDR)]
IC50 of inhibition of ACE enzymatic activity (Dojindo ACE kit-WST) [6]: 46.9 µM

VASVI [Val-Ala-Ser-Val-Ile (VASVI)]
IC50 of inhibition of ACE enzymatic activity (Dojindo ACE kit-WST) [6]: 32.7 µM
